# Experimental data from PubChem BioAssay AID330 (DTP/NCI, 2004).
# Several values for one entry are separate records, joined by “and”; a condition that tells them apart may be missing. Identical values can stand only once. Toxic doses and inconclusive results are not listed.
# System: P388 leukemia ip, CD2F1 mice, survival T/C
# Assay: NCI In Vivo Anticancer Drug Screen. Data for tumor model P388 Leukemia (intraperitoneal) in CD2F1 (CDF1) mice
# Settings: endpoint: median survival time, higher = longer survival
# Method: The antitumor activity of compounds was measured in mice bearing transplantable tumors. Survival or tumor size were measured and the results are expressed as the measurement made in the treated group (T) divided by the measurement made in the vehicle treated control group (C). The tumor model used in this assay is P388 Leukemia (intraperitoneal) in CD2F1 (CDF1) mice
# [1] = dose: 50.0 mg/kg/injection, schedule: Q01DX005 (ip), vehicle: saline
# [2] = dose: 100.0 mg/kg/injection, schedule: Q01DX005 (ip), vehicle: saline
# [3] = dose: 25.0 mg/kg/injection, schedule: Q01DX009 (ip), vehicle: Klucel (hydroxypropylcellulose) (HPC)
# [4] = dose: 6.25 mg/kg/injection, schedule: Q01DX005 (ip), vehicle: saline
# [5] = dose: 25.0 mg/kg/injection, schedule: Q01DX005 (ip), vehicle: saline
structure (smiles),measurement,setting,value
CNC(=S)NC(C)(C)C,T/C,"dose: 15.0 mg/kg/injection, schedule: Q01DX005 (ip), vehicle: Klucel (hydroxypropylcellulose) (HPC)",97 % of control
same,T/C,"dose: 30.0 mg/kg/injection, schedule: Q01DX005 (ip), vehicle: Klucel (hydroxypropylcellulose) (HPC)",97 % of control
same,T/C,"dose: 60.0 mg/kg/injection, schedule: Q01DX005 (ip), vehicle: Klucel (hydroxypropylcellulose) (HPC)",103 % of control and 98 % of control
CCC(c1ccc(O)cc1)c1cc2c(cc1OC)OCO2 (stereo not drawn),T/C,"dose: 50.0 mg/kg/injection, schedule: Q01DX005 (ip), vehicle: distilled water + Tween-80",101 % of control
same,T/C,"dose: 100.0 mg/kg/injection, schedule: Q01DX005 (ip), vehicle: distilled water + Tween-80",96 % of control
same,T/C,"dose: 200.0 mg/kg/injection, schedule: Q01DX005 (ip), vehicle: distilled water + Tween-80",96 % of control
NCCCNc1cc(O)cc2cccnc12,T/C,[1],93 % of control
same,T/C,[2],95 % of control
CCCCCCCC1(O)OC(=O)C(C)=C1C (stereo not drawn),T/C,"dose: 12.5 mg/kg/injection, schedule: Q04DX003 (ip), vehicle: saline with Tween-80",101 % of control
same,T/C,"dose: 25.0 mg/kg/injection, schedule: Q04DX003 (ip), vehicle: saline with Tween-80",108 % of control
same,T/C,"dose: 50.0 mg/kg/injection, schedule: Q04DX003 (ip), vehicle: saline with Tween-80",100 % of control
CC(C)(C)C1=CC(=C/C=C/c2cc(C(C)(C)C)[o+]c(C(C)(C)C)c2)C=C(C(C)(C)C)O1,T/C,"dose: 1.56 mg/kg/injection, schedule: Q01DX009 (ip), vehicle: Klucel (hydroxypropylcellulose) (HPC)",105 % of control
same,T/C,"dose: 3.12 mg/kg/injection, schedule: Q01DX009 (ip), vehicle: Klucel (hydroxypropylcellulose) (HPC)",96 % of control
same,T/C,"dose: 6.25 mg/kg/injection, schedule: Q01DX009 (ip), vehicle: Klucel (hydroxypropylcellulose) (HPC)",109 % of control and 111 % of control
same,T/C,"dose: 12.5 mg/kg/injection, schedule: Q01DX009 (ip), vehicle: Klucel (hydroxypropylcellulose) (HPC)",108 % of control and 116 % of control
same,T/C,[3],109 % of control
CCCCCCOc1cc(N)ccc1C(=O)O,T/C,"dose: 100.0 mg/kg/injection, schedule: Q04DX002 (ip), vehicle: saline with Tween-80",98 % of control
same,T/C,"dose: 200.0 mg/kg/injection, schedule: Q04DX002 (ip), vehicle: saline with Tween-80",100 % of control
same,T/C,"dose: 400.0 mg/kg/injection, schedule: Q04DX002 (ip), vehicle: saline with Tween-80",92 % of control
CC(=O)c1nc(-c2ccccc2)oc1-c1ccccc1,T/C,"dose: 100.0 mg/kg/injection, schedule: Q04DX002 (ip), vehicle: saline",96 % of control
same,T/C,"dose: 200.0 mg/kg/injection, schedule: Q04DX002 (ip), vehicle: saline",95 % of control
same,T/C,"dose: 400.0 mg/kg/injection, schedule: Q04DX002 (ip), vehicle: saline",99 % of control
Cn1c2ccccc2c(=O)c2ccc(Cl)cc21,T/C,[3],117 % of control
same,T/C,"dose: 50.0 mg/kg/injection, schedule: Q01DX009 (ip), vehicle: Klucel (hydroxypropylcellulose) (HPC)",111 % of control
same,T/C,"dose: 100.0 mg/kg/injection, schedule: Q01DX009 (ip), vehicle: Klucel (hydroxypropylcellulose) (HPC)",114 % of control
same,T/C,"dose: 200.0 mg/kg/injection, schedule: Q01DX009 (ip), vehicle: Klucel (hydroxypropylcellulose) (HPC)",88 % of control
same,T/C,"dose: 400.0 mg/kg/injection, schedule: Q01DX009 (ip), vehicle: Klucel (hydroxypropylcellulose) (HPC)",104 % of control
CCOC(=O)C(=O)N(CCCNc1c2ccccc2nc2c(OC)cccc12)CCCNc1c2ccccc2nc2c(OC)cccc12,T/C,"dose: 1.25 mg/kg/injection, schedule: Q01DX009 (ip), vehicle: water",120 % of control
same,T/C,"dose: 2.5 mg/kg/injection, schedule: Q01DX009 (ip), vehicle: water",120 % of control
same,T/C,"dose: 10.0 mg/kg/injection, schedule: Q01DX009 (ip), vehicle: water",161 % of control
COc1ccc2ccc(/C=C/[N+](=O)[O-])cc2c1OC,T/C,"dose: 3.13 mg/kg/injection, schedule: Q01DX009 (ip), vehicle: other",109 % of control
same,T/C,"dose: 6.25 mg/kg/injection, schedule: Q01DX009 (ip), vehicle: other",108 % of control
same,T/C,"dose: 12.5 mg/kg/injection, schedule: Q01DX009 (ip), vehicle: other",110 % of control
same,T/C,"dose: 25.0 mg/kg/injection, schedule: Q01DX009 (ip), vehicle: other",106 % of control
C[CH2][Pb]([CH2]C)([CH2]C)[O]C(=O)c1ccc2ccccc2n1,T/C,"dose: 0.25 mg/kg/injection, schedule: Q01DX009 (ip), vehicle: saline with Tween-80",100 % of control
same,T/C,"dose: 0.5 mg/kg/injection, schedule: Q01DX009 (ip), vehicle: saline with Tween-80",103 % of control
same,T/C,"dose: 1.0 mg/kg/injection, schedule: Q01DX009 (ip), vehicle: saline with Tween-80",99 % of control
same,T/C,"dose: 2.0 mg/kg/injection, schedule: Q01DX009 (ip), vehicle: saline with Tween-80",94 % of control
same,T/C,"dose: 4.0 mg/kg/injection, schedule: Q01DX009 (ip), vehicle: saline with Tween-80",112 % of control
same,T/C,"dose: 8.0 mg/kg/injection, schedule: Q01DX009 (ip), vehicle: saline with Tween-80",90 % of control
S=c1nn[nH]n1-c1cccc2ccccc12,T/C,"dose: 100.0 mg/kg/injection, schedule: Q04DX003 (ip), vehicle: saline sonified",90 % of control
same,T/C,"dose: 200.0 mg/kg/injection, schedule: Q04DX003 (ip), vehicle: saline sonified",100 % of control
same,T/C,"dose: 400.0 mg/kg/injection, schedule: Q04DX003 (ip), vehicle: saline sonified",100 % of control
c1ccc2c(c1)ccc1c(-c3ccncc3)n[nH]c12,T/C,"dose: 50.0 mg/kg/injection, schedule: Q01DX009 (ip), vehicle: saline with Tween-80",99 % of control
same,T/C,"dose: 100.0 mg/kg/injection, schedule: Q01DX009 (ip), vehicle: saline with Tween-80",88 % of control
same,T/C,"dose: 200.0 mg/kg/injection, schedule: Q01DX009 (ip), vehicle: saline with Tween-80",87 % of control
CCCC1N[C@H](C(=O)O)CS1 (stereo partly drawn),T/C,"dose: 50.0 mg/kg/injection, schedule: Q01DX001 (ip), vehicle: Klucel (hydroxypropylcellulose) (HPC)",100 % of control
same,T/C,"dose: 100.0 mg/kg/injection, schedule: Q01DX001 (ip), vehicle: Klucel (hydroxypropylcellulose) (HPC)",97 % of control
same,T/C,"dose: 200.0 mg/kg/injection, schedule: Q01DX001 (ip), vehicle: Klucel (hydroxypropylcellulose) (HPC)",102 % of control
same,T/C,"dose: 400.0 mg/kg/injection, schedule: Q01DX001 (ip), vehicle: Klucel (hydroxypropylcellulose) (HPC)",100 % of control
NCCN.NCCN.[Cl-].[O]=[Re]=[O],T/C,"dose: 60.0 mg/kg/injection, schedule: Q01DX005 (ip), vehicle: saline",100 % of control
same,T/C,"dose: 120.0 mg/kg/injection, schedule: Q01DX005 (ip), vehicle: saline",102 % of control
same,T/C,"dose: 240.0 mg/kg/injection, schedule: Q01DX005 (ip), vehicle: saline",100 % of control
C[C@H](N)[C@H](O)c1cccc(O)c1,T/C,"dose: 1.5 mg/kg/injection, schedule: Q01DX005 (ip), vehicle: saline",103 % of control
same,T/C,"dose: 3.0 mg/kg/injection, schedule: Q01DX005 (ip), vehicle: saline",99 % of control
same,T/C,"dose: 6.0 mg/kg/injection, schedule: Q01DX005 (ip), vehicle: saline",110 % of control
same,T/C,[4],115 % of control
same,T/C,[5],100 % of control
CN=C(NC)c1ccc(NC(=O)c2cc(Cl)cc(C(=O)Nc3ccc(C(=NC)NC)cc3)c2)cc1,T/C,[4],98 % of control
same,T/C,"dose: 12.5 mg/kg/injection, schedule: Q01DX005 (ip), vehicle: saline",113 % of control
same,T/C,[5],118 % of control
CCOC(=O)OC(C#N)(c1ccc([N+](=O)[O-])cc1)c1nccc2ccccc12 (stereo not drawn),T/C,"dose: 12.5 mg/kg/injection, schedule: Q01DX009 (ip), vehicle: saline",93 % of control
same,T/C,"dose: 25.0 mg/kg/injection, schedule: Q01DX009 (ip), vehicle: saline",97 % of control
same,T/C,"dose: 50.0 mg/kg/injection, schedule: Q01DX009 (ip), vehicle: suspension in saline",87 % of control
COC1C=C(C)C(=O)O1 (stereo not drawn),T/C,[1],106 % of control
same,T/C,[2],101 % of control
same,T/C,"dose: 200.0 mg/kg/injection, schedule: Q01DX005 (ip), vehicle: saline",101 % of control
CSC(=S)N/N=C(\C)Cc1ccccn1,T/C,"dose: 12.5 mg/kg/injection, schedule: Q01DX005 (ip), vehicle: saline with Tween-80",102 % of control
same,T/C,"dose: 25.0 mg/kg/injection, schedule: Q01DX005 (ip), vehicle: saline with Tween-80",100 % of control
same,T/C,"dose: 50.0 mg/kg/injection, schedule: Q01DX005 (ip), vehicle: saline with Tween-80",101 % of control and 95 % of control
Nc1nc(-c2cccc3ccccc23)cc2ccccc12,T/C,"dose: 12.5 mg/kg/injection, schedule: Q01DX009 (ip), vehicle: water",124 % of control
same,T/C,"dose: 100.0 mg/kg/injection, schedule: Q01DX009 (ip), vehicle: water",150 % of control
same,T/C,"dose: 200.0 mg/kg/injection, schedule: Q01DX009 (ip), vehicle: water",166 % of control
